Reference: patent US9624477B2 (priority 2004, dated 2017)

Tested on: Pi-omega3Des
Assay type: cell-based, Phytophthora infestans
Conditions: FIG. 9; for phospholipid converted by ω-3-desaturase: desaturation products also found in the neutral lipids; for desaturation of phospholipid-bound fatty acid (sn1 or sn2 position): fatty acids bound in phospholipids

Compound | phospholipid converted by ω-3-desaturase | desaturation of phospholipid-bound fatty acid (sn1 or sn2 position)
phosphatidylethanolamine | converts | 
phosphatidylcholine | converts | 
phosphatidylinositol | converts | 
CCCCC/C=C\C/C=C\C/C=C\C/C=C\CCCC(=O)O [arachidonic acid, reference compound] |  | desaturation of phospholipid-bound arachidonic acid to EPA
CCCCC/C=C\C/C=C\C/C=C\CCCCCCC(=O)O [C20:3 ω-6-fatty acid, dihomo-γ-linolenic acid, reference compound] |  | does not differentiate between fatty acids bound at the sn1 or sn2 position
